Experimental data taken from US12502362B2, “Inhibitors of nucleotidyltransferase superfamily enzymes as antibiotics” (priority 2017, dated 2025).
≈ marks a conversion by molar mass, not a printed value. Like-named read-outs stand apart in the source and are kept apart here.

Key:
[1] = tested on: Staphylococcus saprophyticus (ATCC BAA-750); assay: MIC80 on S. saprophyticus; assay type: cell-based; settings: S. saprophyticus ATCC BAA-750, read-out: MIC80 S. sapro
Protocol: (§1) To further characterize the compounds, the minimal inhibitory concentration (MIC80) were determined for selected compounds. MIC80 is defined as the compound concentration at which ≥80% bacterial growth is inhibited compare to untreated controls. Meanwhile, for the selected compounds, cytotoxicity assays (CC50) were performed on a HepG2-derived hepatoblastoma cell line (HEPDES19). […] For CC50 evaluation, soluble tetrazolium dye (MTS) was used to measure mitochondrial toxicity in a human hepatoblastoma cell line (18). The bacteria (E. coli, S. saprophyticus and A. baumannii) used in MIC80 measurements were the same as that in the primary screening, but for Staphylococcus, S. aureus is used primarily because it is a common pathogen in Staphylococcaeae family, while S. saprophyticus is part of the normal human flora.

S. aureus (ATCC 29213) = assay: MIC80 on S. aureus; assay type: cell-based, Staphylococcus aureus; settings: ≥80% growth inhibition; for MIC80: Staphylococcus aureus, ATCC 29213 / MSSA, read-out: MIC80 S. aureus, S. aureus ATCC 29213 (MSSA); for MIC80 S. aureus: S. aureus ATCC 29213 (MSSA)
Protocol: as §1

E. coli (ATCC 35218) = assay: microbe, parasite or virus in culture; assay type: cell-based; settings: for MIC80: Escherichia coli, ATCC35218, read-out: MIC80 E. coli, E. coli ATCC 35218; for MIC80 E. coli: E. coli ATCC 35218
Protocol: as §1

[2] = tested on: S. aureus and/or S. saprophyticus; assay: MIC80 on S. aureus and/or S. saprophyticus; assay type: cell-based; settings: read-out: MIC80 against S. aureus and/or S. saprophyticus
Protocol: as §1, with “(HEPDES19). […] For the MIC80 measurements, a 1.5 fold dilution series of the compounds was prepared in Mueller-Hinton II broth.” for “(HEPDES19).”, “flora. S. aureus (ATCC 29213) is methicillin-sensitive Staphylococcus aureus (MSSA) strain and it was used as a model strain to measure the MIC80.” for “flora.”

[3] = tested on: HepG2-derived hepatoblastoma cell line (HEPDES19); assay: Cytotoxicity assay (CC50), MTS; assay type: cell-based, human; settings: HEPDES19 cells
Protocol: as §1

[4] = Cytotoxicity assay (CC50), MTS; assay type: cell-based, human; settings: human, HEPDES19 cells
Protocol: as §1

[5] = tested on: Acinetobacter baumannii (Abl, from a patient); assay: microbe, parasite or virus in culture; assay type: cell-based; settings: for MIC80: Acinetobacter baumannii, read-out: MIC80 A. baumannii, A. baumannii Ab1, MDR patient isolate; for MIC80 A. baumannii: A. baumannii Ab1, MDR patient isolate
Protocol: as §1

[6] = Staphylococcus saprophyticus, ATCCBAA750
[7] = HepG2-derived hepatoblastoma cell line (HEPDES19)

SMILES	MIC80 [1, 6]	MIC80 (S. aureus (ATCC 29213))	MIC80 (E. coli (ATCC 35218))	MIC80 [2]	CC50 [3]	CC50 [4, 7]	MIC80 [5]	CC50 [4]	MIC80 [1]	MIC80 S. aureus (S. aureus (ATCC 29213))	MIC80 E. coli (E. coli (ATCC 35218))	MIC80 A. baumannii [5]
O=c1ccc2ccccc2n1O [Compound 43]	11.4 µM (≈ 1.84 µg/mL)	13.2 µM (≈ 2.13 µg/mL)	111 µM (≈ 17.9 µg/mL)	< 20 µM	≥ 100 µM	> 50 µM	–	–	–	–	–	–
CC(C)c1ccc(O)c(=O)c(O)c1 [Compound 46]	29.6 µM (≈ 5.33 µg/mL)	19.8 µM (≈ 3.57 µg/mL)	44.4 µM (≈ 8 µg/mL)	< 20 µM	–	–	100 µM (≈ 18 µg/mL)	< 50 µM	–	–	–	–
O=C(Oc1cccccc1=O)c1ccc([N+](=O)[O-])cc1 [Compound 51]	15.1 µM (≈ 4.1 µg/mL)	16.5 µM (≈ 4.48 µg/mL)	167 µM (≈ 45.2 µg/mL)	< 20 µM	56 µM	> 50 µM	–	–	–	–	–	–
O=c1cccccc1O [Compound 53]	–	–	–	–	≥ 100 µM	–	–	–	8.8 µM (≈ 1.07 µg/mL)	11.7 µM (≈ 1.43 µg/mL)	>100 µM	–
O=c1ccccc(Br)c1O [Compound 54]	14.9 µM (≈ 3 µg/mL)	16.1 µM (≈ 3.24 µg/mL)	70.4 µM (≈ 14.2 µg/mL)	< 20 µM	–	> 50 µM	44.4 µM (≈ 8.93 µg/mL)	–	–	–	–	–
O=C(Oc1cccccc1=O)c1ccccc1 [Compound 62]	10.3 µM (≈ 2.33 µg/mL)	19.8 µM (≈ 4.48 µg/mL)	111 µM (≈ 25.1 µg/mL)	< 20 µM	–	> 50 µM	83.4 µM (≈ 18.9 µg/mL)	–	–	–	–	–
CC(C)C(CO)n1cc(C(=O)O)c(=O)c2cc(Cc3cccc(Cl)c3F)c(F)cc21 (stereo not drawn) [Compound 75]	–	–	–	–	28 µM	–	–	–	15.1 µM (≈ 6.58 µg/mL)	8.8 µM (≈ 3.84 µg/mL)	100 µM (≈ 43.6 µg/mL)	–
Cc1cc(O)c(=O)c(O)cc1C(=O)C1CCCCC1 [Compound 120]	–	19.8 µM (≈ 5.19 µg/mL)	44.4 µM (≈ 11.6 µg/mL)	< 20 µM	–	< 50 µM	83.4 µM (≈ 21.9 µg/mL)	–	–	–	–	–
CC1=C(C#N)C(O)=NC(=O)/C1=C\c1ccc(-c2ccccc2)o1 [Compound 140]	12.7 µM (≈ 3.86 µg/mL)	3.9 µM (≈ 1.19 µg/mL)	> 100 µM	< 20 µM	42 µM	< 50 µM	–	–	–	–	–	–
O=c1cc(-c2ccccc2)c2cccnc2n1O [Compound 154, 1-hydroxy-4-phenyl-1,8-naphthyridin-2-one]	17.8 µM (≈ 4.24 µg/mL)	–	< 30 µM	< 20 µM	–	4 µM	–	–	–	–	21.9 µM (≈ 5.22 µg/mL)	–
O=c1c(O)ccc(-c2ccccc2)cc1O [Compound 262]	19.8 µM (≈ 4.24 µg/mL)	19.8 µM (≈ 4.24 µg/mL)	66.7 µM (≈ 14.3 µg/mL)	< 20 µM	57 µM	> 50 µM	100 µM (≈ 21.4 µg/mL)	–	–	–	–	–
Cc1cc(O)c(O)c(=O)c(O)c1 [Compound 272]	–	–	44.4 µM (≈ 7.47 µg/mL)	–	–	10 µM	< 30 µM	–	–	–	–	29.6 µM (≈ 4.98 µg/mL)
Cc1cc(O)c(=O)c(O)cc1C(=O)c1cccs1 [Compound 308]	29.6 µM (≈ 7.76 µg/mL)	44.4 µM (≈ 11.6 µg/mL)	< 30 µM	–	26 µM	< 50 µM	32.1 µM (≈ 8.42 µg/mL)	–	–	–	24.7 µM (≈ 6.48 µg/mL)	–
Cc1cc(O)c(=O)c(O)cc1C(=O)C1CC1 [Compound 310]	44.4 µM (≈ 9.78 µg/mL)	–	< 30 µM	–	–	> 50 µM	< 30 µM	–	–	–	29.6 µM (≈ 6.52 µg/mL)	29.6 µM (≈ 6.52 µg/mL)
Cc1cc(O)c(=O)c(O)cc1C(=O)c1ccccc1O [Compound 311]	–	66.7 µM (≈ 18.2 µg/mL)	< 30 µM	–	32 µM	< 50 µM	44.4 µM (≈ 12.1 µg/mL)	–	–	–	29.6 µM (≈ 8.06 µg/mL)	–
O=c1c(Br)cc(Br)cc(Br)c1O [Compound 350]	–	2.6 µM (≈ 0.933 µg/mL)	100 µM (≈ 35.9 µg/mL)	< 20 µM	45 µM	< 50 µM	100 µM (≈ 35.9 µg/mL)	–	–	–	–	–
